ChEMBL document CHEMBL3044664, “Synthesis of coumarin-based 1,3,4-oxadiazol-2ylthio-N-phenyl/benzothiazolyl acetamides as antimicrobial and antituberculosis agents” (2013)
Values after ≈ are worked out from the molar mass of the structure shown.

Columns and labels:
Format in all cases: functional
Salmonella typhi = test: Antibacterial activity against Salmonella enterica subsp. enterica serovar Typhi MTCC 733 assessed as growth inhibition by agar streak dilution method
Aspergillus niger = test: Antifungal activity against Aspergillus niger MTCC 282 assessed as growth inhibition by agar streak dilution method
Aspergillus clavatus = test: Antifungal activity against Aspergillus clavatus MTCC 1323 assessed as growth inhibition by agar streak dilution method
Staphylococcus aureus = test: Antibacterial activity against Staphylococcus aureus MTCC 96 assessed as growth inhibition by agar streak dilution method
[1] = system: Mycobacterium tuberculosis; test: Antitubercular activity against Mycobacterium tuberculosis H37Rv assessed as growth inhibition at MIC by Lowenstein-Jensen method
Escherichia coli = test: Antibacterial activity against Escherichia coli MTCC 739 assessed as growth inhibition by agar streak dilution method
Klebsiella pneumoniae = test: Antibacterial activity against Klebsiella pneumoniae MTCC 109 assessed as growth inhibition by agar streak dilution method
Proteus vulgaris = test: Antibacterial activity against Proteus vulgaris MTCC 1771 assessed as growth inhibition by agar streak dilution method
Pseudomonas aeruginosa = test: Antibacterial activity against Pseudomonas aeruginosa MTCC 741 assessed as growth inhibition by agar streak dilution method
Bacillus cereus = test: Antibacterial activity against Bacillus cereus MTCC 430 assessed as growth inhibition by agar streak dilution method
Candida albicans = test: Antifungal activity against Candida albicans MTCC 183 assessed as growth inhibition by agar streak dilution method
[2] = system: Mycobacterium tuberculosis; test: Antitubercular activity against Mycobacterium tuberculosis H37Rv assessed as growth inhibition by BACTEC MGIT method
Aspergillus fumigatus = test: Antifungal activity against Aspergillus fumigatus MTCC 343 assessed as growth inhibition by agar streak dilution method
Shigella flexneri = test: Antibacterial activity against Shigella flexneri MTCC 1457 assessed as growth inhibition by agar streak dilution method
[3] = system: Mycobacterium tuberculosis; test: Antitubercular activity against Mycobacterium tuberculosis H37Rv assessed as growth inhibition by Lowenstein-Jensen method
[4] = system: Mycobacterium tuberculosis; test: Antitubercular activity against Mycobacterium tuberculosis H37Rv assessed as growth inhibition at MIC by BACTEC MGIT method

Structure (SMILES) | MIC (Salmonella typhi) [µg/mL] | MIC (Aspergillus niger) [µg/mL] | MIC (Aspergillus clavatus) [µg/mL] | MIC (Staphylococcus aureus) [µg/mL] | growth inhibition (GI) [1] [%] | MIC (Escherichia coli) [µg/mL] | MIC (Klebsiella pneumoniae) [µg/mL] | MIC (Proteus vulgaris) [µg/mL] | MIC (Pseudomonas aeruginosa) [µg/mL] | MIC (Bacillus cereus) [µg/mL] | MIC (Candida albicans) [µg/mL] | MIC [2] [µg/mL] | MIC (Aspergillus fumigatus) [µg/mL] | MIC (Shigella flexneri) [µg/mL] | MIC [3] [µg/mL] | growth inhibition (GI) [4] [%]
O=C(CSc1nnc(-c2cc3ccccc3oc2=O)o1)Nc1ccccc1 | > 100 | > 100 | > 100 | > 100 | 95 | 100 (≈ 264 µM) | > 100 | > 100 | > 100 | 100 (≈ 264 µM) | 100 (≈ 264 µM) | > 6.25 | > 100 | > 100 | 500 (≈ 1320 µM) | 
O=C(CSc1nnc(-c2cc3ccccc3oc2=O)o1)Nc1ccc(Cl)cc1 | 100 (≈ 242 µM) | 25 (≈ 60.4 µM) | 100 (≈ 242 µM) | 50 (≈ 121 µM) | 96 | 25 (≈ 60.4 µM) | 100 (≈ 242 µM) | 100 (≈ 242 µM) | 100 (≈ 242 µM) | 25 (≈ 60.4 µM) | 50 (≈ 121 µM) | > 6.25 | 25 (≈ 60.4 µM) | 50 (≈ 121 µM) | 100 (≈ 242 µM) | 
O=C(CSc1nnc(-c2cc3ccccc3oc2=O)o1)Nc1ccc(Br)cc1 | 100 (≈ 218 µM) | 50 (≈ 109 µM) | 100 (≈ 218 µM) | 50 (≈ 109 µM) | 97 | 12.5 (≈ 27.3 µM) | 100 (≈ 218 µM) | 100 (≈ 218 µM) | 50 (≈ 109 µM) | 12.5 (≈ 27.3 µM) | 50 (≈ 109 µM) | > 6.25 | 100 (≈ 218 µM) | 100 (≈ 218 µM) | 62.5 (≈ 136 µM) | 
CC[C@@H](CO)NCCN[C@@H](CC)CO [ETHAMBUTOL] |  |  |  |  |  |  |  |  |  |  |  | 3.12 (≈ 15.3 µM) |  |  |  | 99
NNC(=O)c1ccncc1 [ISONIAZID] |  |  |  |  |  |  |  |  |  |  |  | 0.2 (≈ 1.46 µM) |  |  |  | 99
NC(=O)c1cnccn1 [PYRAZINAMIDE] |  |  |  |  |  |  |  |  |  |  |  | 6.25 (≈ 50.8 µM) |  |  |  | 99
CO[C@H]1/C=C/O[C@@]2(C)Oc3c(C)c(O)c4c(O)c(c(/C=N/N5CCN(C)CC5)c(O)c4c3C2=O)NC(=O)/C(C)=C\C=C\[C@H](C)[C@H](O)[C@@H](C)[C@@H](O)[C@@H](C)[C@H](OC(C)=O)[C@@H]1C [RIFAMPIN] |  |  |  |  |  |  |  |  |  |  |  | 0.25 (≈ 0.304 µM) |  |  |  | 99
